Test results as given in patent US11172681B2 (priority 2017, dated 2021).

How the values were obtained:
[1] = Physicochemical stability test (thermal storage of technical material in ovens for 2 months); conditions: for Stability at different temperatures: 25-70° C.; for Purity after thermal storage: HPLC
Description: Thereafter, technical materials of the two crystalline forms were placed into ovens with temperatures of 25° C., 40° C., 55° C. and 70° C. respectively and left there for 2 months for thermal storage test.

[2] = Synergistic effect with other herbicides

Row | Stability at different temperatures [1] | Crystalline form after thermal storage ([1]; 25° C.) | Purity after thermal storage ([1]; 25° C.) [%] | Crystalline form after thermal storage ([1]; 40° C.) | Purity after thermal storage ([1]; 40° C.) [%] | Crystalline form after thermal storage ([1]; 55° C.) | Purity after thermal storage ([1]; 55° C.) [%] | Crystalline form after thermal storage ([1]; 70° C.) | Purity after thermal storage ([1]; 70° C.) [%] | SMILES | Synergistic effect with one or more listed herbicides [2]
1 | good stability | Crystalline form A | 96.0 | Crystalline form A | 95.5 | Crystalline form A | 95.1 | Crystalline form A | 94.2 | Cc1nn(C)cc1C(=O)Oc1c(C(=O)c2ccc(C(F)(F)F)cc2S(C)(=O)=O)c(C)nn1C [Crystalline form A of shuangzuocaotong, 1,3-Dimethyl-1H-pyrazole-4-carboxylic acid 4-[2-methanesulfonyl-4-trifluoromethyl-benzoyl]-1,3-dimethyl-1H-pyrazol-5-yl ester] | –
2 | good stability | Crystalline form C | 96.0 | Crystalline form C | 95.8 | Crystalline form C | 95.7 | Crystalline form C | 95.2 | Cc1nn(C)cc1C(=O)Oc1c(C(=O)c2ccc(C(F)(F)F)cc2S(C)(=O)=O)c(C)nn1C [Crystalline form C of shuangzuocaotong, 1,3-Dimethyl-1H-pyrazole-4-carboxylic acid 4-[2-methanesulfonyl-4-trifluoromethyl-benzoyl]-1,3-dimethyl-1H-pyrazol-5-yl ester] | obvious synergistic effect
